Test results from US7122173B2, “Agent for the treatment of bladder irritative symptoms accompanied by benign prostatic hyperplasia” (Kyowa Hakko Kogyo Co., Ltd., priority 2001, dated 2006).

Columns and labels:
[1] = tested on: rats with partial urethra obstruction; experiment: Increased urinary frequency accompanied by partial bladder outlet obstruction (metabolism cage urination test); assay type: in vivo, rat
Protocol: The test was carried out in accordance with the method of Saito et al. (J. Urol., 150: 1045–1051 (1993)). Male SD rats of 8 to 9 weeks of age (supplied by Japan SLC) were used in the test. Five to seven animals of these rats were put in each metal cage and reared by allowing them to freely take commercially available chow and water, in a rearing room at a room temperature of from 19 to 25° C. and a humidity of from 30 to 70% under illumination for 12 hours (from 7 a.m. to 7 p.m.) per day. Partial urethra obstruction was induced in rats as a model of outlet obstruction mimicking BPH. Each rat was anesthetized by intraperitoneal administration of 50 mg/kg of pentobarbital sodium (Dainippon Pharmaceutical) and placed in dorsal position. The abdomen was cut in a length of about 1 cm by midline incision to expose the bladder, prostate and the urethra. The bladder neck and bladder base were peeled from the prostate, and two surgical sutures (No. 3, Natsume Seisakusho) were passed behind the urethra base. A polyethylene tube (PE-200; Becton Dickinson) was placed along the urethra, and the urethra was mildly double-ligated together with the tube. The ligation was carried out in such a manner that the urethra was not pressed by the polyethylene tube and the sutures were not loosened. The polyethylene tube was pulled out and the urethra was partially obstructed. The incised part of the abdomen was sutured with the surgical suture. Five to seven days after the partial urethra constriction operation, the rats subjected to partial urethra obstruction and those subjected to sham-operation were put in metabolism cages (KN-649, Natsume Seisakusho). For acclimatization, rats were reared for 1 day with free drinking and feeding, and the urination test was started on the next day. Using an electronic force balance (HF-200; A and D), the amount of urination by rats was continuously measured as weight, and -recorded on a thermal array recorder (RTA-1200; Nihon Kohden) via a direct current amplifier (AD-641G; Nihon Kohden). The light period (9 to 18 o'clock) under illumination and the dark period (19 to 4 o'clock) under lights off were used as the data collecting periods, and the number of micturition and the urinary volume during these periods were measured to calculate urinary frequency (frequency of micturition per 9 hours), voided volume per micturition and total urine volume as the measuring parameters. In this case, the voided volume per micturition was calculated by dividing the total urine volume per 9 hours by the urinary frequency per 9 hours. Compound 1 or a solvent (0.5 w/v % aqueous methyl cellulose 400 cP (average viscosity: 400 centipoises) solution) was administered twice on the next day between 8 to 9 o'clock and 18 to 19 o'clock, and the number of micturition and urine volume during 9 to 18 o'clock and 19 to 4 o'clock were measured to obtain measured values similarly to the case of the previous day. In the sham-operation group, the urinary frequency, voided volume per micturition and the total urine volume on the first day of the urination test were compared with those in the urethra obstruction group. The urinary frequency, voided volume per micturition and the total urine volume in each group were calculated as average ±standard error.

dd male mice = details: mouse, in vivo, po, 7 day
Protocol: The test compound was administered orally or intraperitoneally to 3 animals per group of dd male mice (body weight, 20±1 g). Minimum lethal dose (MLD) value was obtained by observing mortality on the 7th day after the administration.

[2] = tested on: Na^+ currents in DRG cells; experiment: Voltage clamp, inward Na+ currents in DRG cells; assay type: cell-based, rat
Protocol: Experiments were performed on adult female Sprague Dawley rats. First and second series of the experiments were performed, respectively, in unidentified DRG neurons and a specific population of DRG neurons innervating the urinary bladder. The population of DRG neurons that innervate the urinary bladder were labeled by retrograde axonal transport of the fluorescent dye, Fast Blue (4% w/v) (Polyloy, Gross Umstadt, Germany), injected into the wall of the bladder in halothane-anesthetized animals 7 days before the dissociation. The dye was injected with a 28 gauge needle at three to six sites on the dorsal surface of the organ (5–6 μL per site, total volume of 20–30 μL). Each injection site was washed with saline to minimize contamination of adjacent organs with the dye.
Freshly dissociated neurons from DRG were prepared from halothane-anesthetized animals. L6 and S1 DRG were dissected from animals and then dissociated in a shaking bath for 25 minutes at 35° C. with 5 mL DMEM (Sigma) containing 0.3 mg/mL trypsin (Type 3, Sigma), 1 mg/mL collagenase (Type 1, Sigma), and 0.1 mg/mL deoxyribonuclease (Type 4, Sigma). Trypsin inhibitor (Type 2a, Sigma) was then added thereto to neutralize the activity of trypsin. Individual DRG cell bodies were isolated by trituration and then plated on a poly-L-lysine-coated 35 mm Petri dishes.
Dye-labeled primary afferent neurons that innervate the urinary bladder were identified using an inverted phase-contrast microscope (Nikon, Tokyo, Japan) with fluorescent attachments (UV-1A filter; excitation wavelength, 365 nm). Gigaohm-seal whole-cell recordings were performed at room temperature (20–22° C.) on each labeled neuron in a culture dish that usually contained three to seven labeled cells among a few hundred unlabeled neurons. The internal solution contained (in mmol/L): KCl 140, CaCl2 1, MgCl2 2, EGTA 11, HEPES 10, Mg-ATP 2, and Tris-GTP 0.4 adjusted to pH 7.4 with KOH. Patch electrodes had resistances of 1–4 M Ω when filled with the internal solution. Neurons were superfused at a flow rate of 1.5 mL/minutes with an external solution containing (in mmol/L): NaCl 150, KCl 5, CaCl2 2.5, MgCl2 1, HEPES 10, and D-glucose 10, adjusted to pH 7.4 with NaOH. All recordings were made with an Axopatch-1D patch-clamp amplifier (Axon Instruments, Foster City, Calif.), and data were acquired and analyzed by PCLAMP software (Axon Instruments).
Inward Na^+ currents were evoked by voltage steps to +60 mV, 800 ms long from a holding potentials of −90 mV. Currents were measured at the maximum (peak) and normalized to control (before addition of the compound).

[3] = Dark period (active period), after administration
[4] = Dark period (active period), before administration (baseline of the Compound 1 group)
[5] = Light period (inactive period), after administration
[6] = Light period (inactive period), before administration (baseline of the Compound 1 group)
[7] = rats with partial urethra obstruction

C[C@](O)(C(=O)Nc1cccc2c1C(=O)c1sccc1CS2(=O)=O)C(F)(F)F [Compound 1, (S)-(+)-N-(5,5-dioxido-10-oxo-4,10-dihydrothieno[3,2-c][1]benzothiepin-9-yl)-3,3,3-trifluoro-2-hydroxy-2-methylpropanamide]
Total urine volume [1, 3]: 4.83 ± 0.83 mL/9 h | Urinary frequency [1, 3]: 6.7 ± 1.2 micturitions/9 h | Voided volume per micturition [1, 3]: 0.771 ± 0.160 mL | Total urine volume [1, 4]: 3.57 ± 0.57 mL/9 h | Urinary frequency [1, 4]: 10.0 ± 1.3 micturitions/9 h | Voided volume per micturition [1, 4]: 0.362 ± 0.038 mL | Total urine volume [1, 5]: 4.76 ± 0.78 mL/9 h | Urinary frequency [1, 5]: 5.3 ± 0.4 micturitions/9 h | Voided volume per micturition [1, 5]: 0.899 ± 0.127 mL | Total urine volume [1, 6]: 4.80 ± 0.31 mL/9 h | Urinary frequency [1, 6]: 8.7 ± 0.8 micturitions/9 h | Voided volume per micturition [1, 6]: 0.577 ± 0.064 mL | Effect on urinary frequency (in words) [1, 7]: significantly reduced urinary frequency | Effect on voided volume per micturition (in words) [1, 7]: tended to increase voided volume per micturition | Minimum lethal dose (MLD) (dd male mice): > 1,000 mg/kg | Na^+ ion currents, normalized to control (before addition) ([2]; Compound 1 1.0 × 10^−6 mol/L): 0.99 ± 0.02 | Na^+ ion currents, normalized to control (before addition) ([2]; Compound 1 5.0 × 10^−4 mol/L): 1.00 ± 0.01 | Na^+ ion currents, normalized to control (before addition) ([2]; Compound 1 5.0 × 10^−5 mol/L): 1.00 ± 0.01 | Na^+ ion currents, normalized to control (before addition) ([2]; Compound 1 5.0 × 10^−6 mol/L): 1.00 ± 0.00 | Na^+ ion currents, normalized to control (before addition) ([2]; Compound 1 5.0 × 10^−7 mol/L): 0.99 ± 0.01 | Na^+ ion currents, normalized to control (before addition) ([2]; Compound 1 5.0 × 10^−8 mol/L): 0.99 ± 0.01 | Influence upon Na^+ currents (in words) ([2]; DRG cells): does not exert influence upon Na^+ currents
